Test results taken from US20070117743A1, “New antitumoral compounds” (priority 2003, published 2007).
Like-named read-outs stand apart in the source and are kept apart here.

Assays:
Assay type in all cases: cell-based, human
[1] = test system: IGROV-1; test: SRB colorimetric assay of cell growth and viability, IGROV-1; conditions: 48 hours exposure
[2] = test system: HeLa; test: SRB colorimetric assay of cell growth and viability, HeLa; conditions: 48 hours exposure; for CC50: read-out: LC50 HELA
[3] = test system: DU-145; test: SRB colorimetric assay of cell growth and viability, DU-145; conditions: 48 hours exposure
[4] = test system: SK-MEL-28; test: SRB colorimetric assay of cell growth and viability, SK-MEL-28; conditions: 48 hours exposure; for CC50: read-out: LC50 MEL-28
[5] = test system: HT-29; test: SRB colorimetric assay of cell growth and viability, HT-29; conditions: 48 hours exposure; for GI50: read-out: GI50 HT-29; for CC50: read-out: LC50 HT-29
[6] = test system: K-562; test: SRB colorimetric assay of cell growth and viability, K-562; conditions: 48 hours exposure; for CC50: read-out: LC50 K-562
[7] = test system: LoVo-Dox; test: SRB colorimetric assay of cell growth and viability, LoVo-Dox; conditions: 48 hours exposure; for CC50: read-out: LC50 LOVO-DOX
Procedure, shortened: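 Absorbance at 490 nm of Tris-solubilized sulforhodamine B gives the read-out after cells are fixed with cold 50% TCA for 60 min at 4° C. Compound exposure lasts 48 hours over 10 to 10^−8 μg/mL. Growth inhibition, total growth inhibition and lethal concentration are calculated from triplicate wells.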

[8] = test system: HeLa-APL; test: SRB colorimetric assay of cell growth and viability, HeLa-APL; conditions: 48 hours exposure; for CC50: read-out: LC50 HELA-APL
[9] = test system: SK-BR-3; test: SRB colorimetric assay of cell growth and viability, SK-BR-3; conditions: 48 hours exposure
From the text: The finality of this assay is to interrupt the growth of a “in vitro” tumor cell culture by means a continued exhibition of the cells to the sample to be testing.
This form of the assay employs 96 well cell culture microplates of 9 mm diameter (Faircloth, 1988; Mosmann, 1983). Most of the cell lines are obtained from American Type Culture Collection (ATCC) derived from different human cancer types.
Cells are maintained in RPMI 1640 10% FBS, supplemented with 0.1 g/l penicillin and 0.1 g/l streptomycin sulfate and then incubated at 37° C., 5% CO2 and 98% humidity. For the experiments, cells were harvested from subconfluent cultures using trypsin and resuspended in fresh medium before plating.
Cells are seeded in 96 well microtiter plates, at 5×10^3 cells per well in aliquots of 195 μL medium, and they are allowed to attach to the plate surface by growing in drug free medium for 18 hours. Afterward, samples are added in aliquots of 5 μL in a ranging from 10 to 10^−8 μg/mL, dissolved in DMSO:EtOH:PBS (0.5:0.5:99). After 48 hours exposure, the antitumor effect are measured by the SRB methodology: cells are fixed by adding 50 μL of cold 50% (wt/vol) trichloroacetic acid (TCA) and incubating for 60 minutes at 4° C. Plates are washed with deionized water and dried. One hundred μL of SRB solution (0.4% wt/vol in 1% acetic acid) is added to each microtiter well and incubated for 10 minutes at room temperature. Unbound SRB is removed by washing with 1% acetic acid. Plates are air dried and bound stain is solubilized with Tris buffer. Optical densities are read on a automated spectrophotometric plate reader at a single wavelength of 490 nm.
The values for mean+/− SD of data from triplicate wells are calculated. Some parameters for cellular responses can be calculated: GI=growth inhibition, TGI=total growth inhibition (cytostatic effect) and LC=cell killing (cytotoxic effect).

[10] = test system: A-549; test: SRB colorimetric assay of cell growth and viability, A-549; conditions: 48 hours exposure; for GI50: read-out: GI50 A-549; for CC50: read-out: LC50 A-549
[11] = test system: LoVo; test: SRB colorimetric assay of cell growth and viability, LoVo; conditions: 48 hours exposure; for CC50: read-out: LC50 LOVO
[12] = test system: PANC-1; test: SRB colorimetric assay of cell growth and viability, PANC-1; conditions: 48 hours exposure; for CC50: read-out: LC50 PANC-1
[13] = test system: IGROV-ET; test: SRB colorimetric assay of cell growth and viability, IGROV-ET; conditions: 48 hours exposure; for CC50: read-out: LC50 IGROV-ET

## C/C=C1\NC(=O)[C@H](Cc2cccc(Cl)c2)NC(=O)[C@@H](C(C)C)NC(=O)[C@@H]([C@@H](C)CC)NC(=O)[C@H](NC(=O)[C@H](NC(=O)[C@H](CCCN)NC(=O)[C@H]2CCCN2C(=O)[C@H](NC(=O)[C@@H](NC(=O)[C@@H](NC(=O)[C@H](NC(=O)CCCC(C)C)C(C)C)[C@@H](C)O)C(C)C)C(C)C)[C@@H](C)CC)[C@@H](C)OC(=O)[C@H](C(C)C)NC1=O [Compound 82, [Phe(3-Cl)^3]-KF]
[1]; IGROV
  GI50: 69.5 nM
  LC50 (concentration causing 50% net cell killing): 182 nM
  TGI IGROV: 1.13E−07 Molar
[2]; HELA
  GI50: 127 nM
  TGI HELA: 2.75E−07 Molar
  CC50: 521 nM
[3]; DU-145
  GI50: 209 nM
  LC50 (concentration causing 50% net cell kill): 553 nM
  TGI DU-145: 3.40E−07 Molar
[4]; MEL-28
  GI50: 297 nM
  TGI MEL-28: 4.41E−07 Molar
  CC50: 935 nM
[5]; HT-29
  TGI HT-29: 1.19E−07 Molar
  GI50: 77.5 nM
  CC50: 187 nM
[6]; K-562
  GI50: 658 nM
  TGI K-562: 1.02E−06 Molar
  CC50: 1590 nM
[7]; LOVO-DOX
  GI50: 45.3 nM
  TGI LOVO-DOX: 9.10E−08 Molar
  CC50: 892 nM
[8]; HELA-APL
  GI50: 192 nM
  TGI HELA-APL: 3.25E−07 Molar
  CC50: 551 nM
[9]; SK-BR-3
  GI50: 58.9 nM
  LC50: 184 nM
  TGI SK-BR-3: 1.04E−07 Molar
[10]; A-549
  TGI A-549: 6.03E−07 Molar
  GI50: 291 nM
  CC50: 1490 nM
[11]; LOVO
  GI50: 40.6 nM
  TGI LOVO: 8.73E−08 Molar
  CC50: 180 nM
[12]; PANC-1
  GI50: 965 nM
  TGI PANC-1: 1.84E−06 Molar
  CC50: 1.84 µM
[13]; IGROV-ET
  GI50: 110 nM
  TGI IGROV-ET: 2.20E−07 Molar
  CC50: 576 nM

## C/C=C1\NC(=O)[C@H](Cc2ccccc2)N(C)C(=O)[C@@H](C(C)C)NC(=O)[C@@H]([C@@H](C)CC)NC(=O)[C@H](NC(=O)[C@H](NC(=O)[C@H](CCCN)NC(=O)[C@H]2CCCN2C(=O)[C@H](NC(=O)[C@@H](NC(=O)[C@@H](NC(=O)[C@H](NC(=O)CC[C@@H](C)CC)C(C)C)[C@@H](C)O)C(C)C)C(C)C)[C@@H](C)CC)[C@@H](C)OC(=O)[C@H](C(C)C)NC1=O [Compound 80, [NMePhe^3, (4S)-MeHex^14]-KF]
[1]; SRB
  GI50: 416 nM
  LC50 (concentration causing 50% net cell killing): 2820 nM
  TGI IGROV: 1.17E−06 Molar
[2]; SRB
  GI50: 392 nM
  TGI HELA: 1.19E−06 Molar
  CC50: 2510 nM
[3]; SRB
  GI50: 1070 nM
  LC50 (concentration causing 50% net cell kill): 3620 nM
  TGI DU-145: 1.97E−06 Molar
[4]; SRB
  GI50: 1320 nM
  TGI MEL-28: 2.25E−06 Molar
  CC50: 3840 nM
[5]; SRB
  TGI HT-29: 4.03E−07 Molar
  GI50: 178 nM
  CC50: 1200 nM
[6]; SRB
  GI50: 744 nM
  TGI K-562: 1.62E−06 Molar
  CC50: 3540 nM
[7]; SRB
  GI50: 120 nM
  TGI LOVO-DOX: 2.08E−07 Molar
  CC50: 359 nM
[8]; SRB
  GI50: 845 nM
  TGI HELA-APL: 1.64E−06 Molar
  CC50: 3190 nM
[9]; SRB
  GI50: 123 nM
  LC50: 1430 nM
  TGI SK-BR-3: 3.29E−07 Molar
[10]; SRB
  TGI A-549: 2.03E−06 Molar
  GI50: 1130 nM
  CC50: 3670 nM
[11]; SRB
  GI50: 125 nM
  TGI LOVO: 2.61E−07 Molar
  CC50: 545 nM
[12]; SRB
  GI50: 1900 nM
  TGI PANC-1: 3.82E−06 Molar
  CC50: 6.7 µM
[13]; SRB
  GI50: 583 nM
  TGI IGROV-ET: 1.39E−06 Molar
  CC50: 3040 nM
